Assay [1] has as its target T1, µOR (Homo sapiens, UniProt P35372). The assay can be described thus: β-arrestin-2 recruitment, enzyme-fragment complementation assay in HEK-293 cells. It is filed as cell-based. The arrangement: expressed in transfected cells; host or cells: HEK-293 cells stably expressing EA-tagged β-arrestin-2, transiently transfected with µOR-PK1. The protocol:
(§1) Functionally selective drugs, which are biased towards Gi protein activation over β-arrestin signaling at the µOR are indicated to show an improved side effect profile. Thus, the characterization of the functional properties of the described examples at the µOR were performed by determination of the ligand stimulated G-protein related signaling and β-arrestin recruitment applying cell based in-vitro test systems. Full and partial agonists as well as antagonists for G protein related signaling were identified.
Measurement of β-arrestin-2 recruitment was done applying an enzyme-fragment complementation assay as described previously (C. Gentzsch, K. Seier, A. Drakopoulos, M.-L. Jobin, Y. Lanoiselee, Z. Koszegi, D. Maurel, R. Sounier, H. Huebner, P. Gmeiner, S. Granier, D. Calebiro, M. Decker. Ang. Chem. Int. Ed. 2020, 59, 2-9. J. Hellmann, M. Drabek, J. Yin, J. Gunera, T. Proell, F. Kraus, C.J. Langmead, H. Huebner, D. Weikert, P. Kolb, D.M. Rosenbaum, P. Gmeiner. PNAS 2020, 117, 18059-18067). In brief, HEK-293 cells stably expressing the enzyme acceptor (EA) tagged β-arrestin-2 fusion protein were transiently co-transfected with the ProLink tagged µOR-PK1 After 24 h cells were transferred into 384-well microplates and cultured for further 24 h. To start arrestin recruitment compounds were added to the cells to get a final concentration in a range of 10 pM to 100 µM. After incubation for 90 min reaction was stopped by addition of detection mix. Chemiluminescence was determined in duplicates (3-8 individual experiments for each compound in comparison to the reference agonist DAMGO). Data analysis was done as described above.
(§2) In the above table, the numbers indicate mean EC50 values in nM and Emax values relative to the full effect of reference agonist DAMGO [=100%], respectively and are derived from 3-9 individual experiments for G-protein signaling and 3-8 tests for arrestin recruitment. ND = not determined.
A general note: Arrestin recruitment assays detect the binding of arrestin to an activated receptor.

Assay [2] concerns the target T1, µOR. Description: G-protein mediated signaling, IP1 accumulation assay (HTRF) in HEK-293T cells with hybrid G-protein Gαqi. Also on record: expressed in transfected cells; host or cells: HEK-293T cells, transient transfection. The class given is cell-based. As for the experimental part: as §1
The determination of G-protein stimulated µOR activation was measured applying an IP1 accumulation assay as described previously (J. Kruell, S.K. Fehler, L. Hofmann, N. Nebel, S. Maschauer, O. Prante, P. Gmeiner, H. Lanig, H. Huebner, M.R. Heinrich. ChemMedChem 2020, 15, 1175-1186. C. Gentzsch, K. Seier, A. Drakopoulos, M.-L. Jobin, Y. Lanoiselee, Z. Koszegi, D. Maurel, R. Sounier, H. Huebner, P. Gmeiner, S. Granier, D. Calebiro, M. Decker. Ang. Chem. Int. Ed. 2020, 59, 2-9). In brief, HEK-293T cells were grown to confluence of approximately 70% and transiently transfected with the cDNA of the human µOR receptor and the hybrid G-protein Gαqi. After one day cells were seeded into 384-well microplates. For testing cells were incubated with test compounds (final range of concentration from 1 pM up to 10 µM) for 180 min at 37 °C followed by addition of detection reagents. Time resolved fluorescence resonance energy transfer (HTRF) was determined using a microplate reader. Each compound was tested in duplicates in 3-9 individual experiments in comparison to the reference compound DAMGO. The resulting dose response curves were analyzed by nonlinear regression using the algorithms in PRISM 6.0 (GraphPad software, San Diego, CA), fitted with a sigmoid model and normalized to basal activity (0 %) and the maximal effect caused by the reference full agonist DAMGO (100 %).
as §2
A general note: TR-FRET usually uses a lanthanide donor and a delayed reading to cut background.

Another assay has as its target T2, δOR (Homo sapiens, UniProt P41143).
T2 construct: expressed in transfected cells; host or cells: HEK 293T cells, transient transfection, membrane preparation
Description: competitive radioligand binding with [3H]diprenorphine, membranes of transfected HEK 293T cells. The protocol: (§3) To verify the subtype selectivity of the described compounds for µOR over δOP and κOR, respectively, the binding affinities of the described examples to the different human opioid receptors in an in-vitro test system were measured.
(§4) For the determination of receptor binding affinity competitive radioligand binding experiments were performed as described in literature (H. Huebner, C. Haubmann, W. Utz, P. Gmeiner, J. Med. Chem., 2000, 43, 756-762). In brief, HEK 293T cells were transiently transfected with the cDNAs coding for the human opioid receptor subtypes µOR, δOR, and kOR, respectively, using a solution of polyethylenimine in PBS (PEI, linear, 25 kDa, Polysciences) as transfection reagent at a 3:1 PEI to cDNA ratio (I. Fish, A. Stoessel, K. Eitel, C. Valant, S. Albold, H. Huebner, D. Moeller, M.J. Clark, R.K. Sunahara, A. Christopoulos, B.K. Shoichet, P. Gmeiner, J. Med. Chem., 2017, 60, 9239-9250). After preparation of membranes, radioligand displacement assays were run in 96-well format at a final volume of 200 µL in binding buffer (50 mM Tris-HCI, 1 mM EDTA, 5 mM MgCl2, 100 µg/mL bacitracin, 5 µg/mL soybean trypsin inhibitor, pH 7.4) with the radioligand [^3H]diprenorphine (specific activity = 31 Ci/mmol) at a final concentration of 0.20-0.30 nM. […] Unspecific binding was determined in the presence of 10 µM of the naloxone. Protein concentrations were determined employing the method of Lowry with bovine serum albumin as standard (O.H. Lowry, N.J. Rosebrough, A.L. Farr, R.J. Randall, J. Biol. Chem., 1951, 193, 265-275). The resulting competition curves of the receptor binding experiments were analyzed by nonlinear regression. The data were initially fit using a sigmoid model to provide IC50 values, which were subsequently transformed to Ki values according to the equation of Cheng and Prusoff (Y.-C. Cheng, W. H. Prusoff, Biochem. Pharmacol., 1973, 22, 3099-3108). Three to seven experiments per compound were performed, with each concentration in triplicate.

In assay [3] the target is T1, µOR. The assay is described as above. The arrangement: expressed in transfected cells; host or cells: HEK 293T cells, transient transfection, membrane preparation. As for the experimental part:
as §3, §4

The target in the next assay is T3, κOR (Homo sapiens, UniProt P41145).
T3 construct: expressed in transfected cells; host or cells: HEK 293T cells, transient transfection, membrane preparation
The assay is described as above. The protocol: as §3
After preparation of membranes, radioligand displacement assays were run in 96-well format at a final volume of 200 µL in binding buffer (50 mM Tris-HCI, 1 mM EDTA, 5 mM MgCl2, 100 µg/mL bacitracin, 5 µg/mL soybean trypsin inhibitor, pH 7.4) with the radioligand [^3H]diprenorphine (specific activity = 31 Ci/mmol) at a final concentration of 0.20-0.30 nM. […] Unspecific binding was determined in the presence of 10 µM of the naloxone. […] The resulting competition curves of the receptor binding experiments were analyzed by nonlinear regression. […] Three to seven experiments per compound were performed, with each concentration in triplicate.

Molecules are shown by their SMILES.

`CN(C)[C@H](CNC(=O)/C=C/c1cccc(C(F)(F)F)c1)Cc1ccc(C(N)=O)cc1` [Example 15, (S,E)-4-(2-(Dimethylamino)-3-(3-(3-(trifluoromethyl)phenyl)acrylamido)propyl)benzamide formiate]: the EC50 at µOR [1] was 130 nM; at µOR [2] it was 6.3 nM. Besides, the Emax was found to be 5% at µOR [1] (HEK293, relative to the full effect of reference agonist DAMGO [=100%]) and 95% at µOR [2] (HEK-293T, read-out: G-protein signaling Emax). Besides, the figures for the Ki at δOR, on µOR [3] and on κOR were 55 nM, 6.7 nM and 450 nM, respectively.

In general, EC50 refers to the concentration needed to bring the measured effect to its halfway point. A lower EC50 goes with greater potency. In general, Emax refers to the size of the effect at its maximum, as opposed to the concentration needed. Usually Ki stands for the equilibrium dissociation constant of an inhibitor or competing ligand from its target.

The record behind these values is EP3964497A1, “SUBSTITUTED VICINAL DIAMINE COMPOUNDS AND THEIR USE IN THE TREATMENT, AMELIORATION OR PREVENTION OF PAIN” (priority 2020, dated 2022).
